Reference: ChEMBL document CHEMBL3991601, “The target landscape of clinical kinase drugs” (Science, 2017)
pKd: −log10 of the molar value. Activity calls are given as the source filed them. For most assays here, no stated cut-off is given here; in the data, actives have a measured Kd and inactives only a lower limit.

How the values were obtained:
[1] = molecular target: Dual specificity testis-specific protein kinase 1 (Homo sapiens, UniProt Q15569)
[2] = molecular target: T1, Mitogen-activated protein kinase kinase kinase kinase 3 (Homo sapiens, UniProt Q8IVH8)
T1 sequence (Q8IVH8 whole entry): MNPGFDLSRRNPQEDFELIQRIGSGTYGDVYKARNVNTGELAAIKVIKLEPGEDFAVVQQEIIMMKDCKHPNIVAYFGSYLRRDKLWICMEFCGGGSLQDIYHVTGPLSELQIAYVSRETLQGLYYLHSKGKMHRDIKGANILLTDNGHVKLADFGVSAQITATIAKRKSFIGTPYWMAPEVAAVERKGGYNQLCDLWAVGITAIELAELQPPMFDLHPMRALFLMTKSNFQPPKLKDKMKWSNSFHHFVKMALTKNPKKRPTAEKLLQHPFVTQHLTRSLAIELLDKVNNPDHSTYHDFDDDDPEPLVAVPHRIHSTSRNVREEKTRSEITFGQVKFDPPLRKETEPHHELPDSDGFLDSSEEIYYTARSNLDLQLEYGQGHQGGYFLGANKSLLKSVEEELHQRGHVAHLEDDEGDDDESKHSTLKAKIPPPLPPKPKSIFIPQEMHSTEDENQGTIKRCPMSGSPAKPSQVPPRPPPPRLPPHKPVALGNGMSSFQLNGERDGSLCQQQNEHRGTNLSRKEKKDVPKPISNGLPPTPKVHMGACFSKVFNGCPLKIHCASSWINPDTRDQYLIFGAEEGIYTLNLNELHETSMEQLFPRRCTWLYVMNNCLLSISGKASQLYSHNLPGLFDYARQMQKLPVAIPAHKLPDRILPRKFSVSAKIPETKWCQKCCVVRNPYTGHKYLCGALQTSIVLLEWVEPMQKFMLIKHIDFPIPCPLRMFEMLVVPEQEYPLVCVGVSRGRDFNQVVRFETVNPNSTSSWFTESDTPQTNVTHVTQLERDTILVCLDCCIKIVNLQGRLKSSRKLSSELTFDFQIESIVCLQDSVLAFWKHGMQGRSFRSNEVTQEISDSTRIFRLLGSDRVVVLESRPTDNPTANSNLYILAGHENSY

[3] = molecular target: T2, Ferrochelatase, mitochondrial (Homo sapiens, UniProt P22830)
T2 sequence (P22830 whole entry): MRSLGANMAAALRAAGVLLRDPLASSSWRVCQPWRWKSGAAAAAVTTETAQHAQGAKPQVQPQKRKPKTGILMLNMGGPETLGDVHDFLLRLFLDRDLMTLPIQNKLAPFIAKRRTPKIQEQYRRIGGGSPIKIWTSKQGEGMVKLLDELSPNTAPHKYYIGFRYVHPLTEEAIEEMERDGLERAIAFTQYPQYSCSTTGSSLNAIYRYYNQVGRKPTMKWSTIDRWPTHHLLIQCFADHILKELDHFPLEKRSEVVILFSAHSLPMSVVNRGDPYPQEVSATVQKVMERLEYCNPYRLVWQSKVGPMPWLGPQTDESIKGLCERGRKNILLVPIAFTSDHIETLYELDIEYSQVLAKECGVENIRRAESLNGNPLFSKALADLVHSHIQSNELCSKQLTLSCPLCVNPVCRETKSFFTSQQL

Activin receptor type-1B = molecular target: T3, Activin receptor type-1B (Homo sapiens, UniProt P36896)
T3 sequence (P36896 whole entry): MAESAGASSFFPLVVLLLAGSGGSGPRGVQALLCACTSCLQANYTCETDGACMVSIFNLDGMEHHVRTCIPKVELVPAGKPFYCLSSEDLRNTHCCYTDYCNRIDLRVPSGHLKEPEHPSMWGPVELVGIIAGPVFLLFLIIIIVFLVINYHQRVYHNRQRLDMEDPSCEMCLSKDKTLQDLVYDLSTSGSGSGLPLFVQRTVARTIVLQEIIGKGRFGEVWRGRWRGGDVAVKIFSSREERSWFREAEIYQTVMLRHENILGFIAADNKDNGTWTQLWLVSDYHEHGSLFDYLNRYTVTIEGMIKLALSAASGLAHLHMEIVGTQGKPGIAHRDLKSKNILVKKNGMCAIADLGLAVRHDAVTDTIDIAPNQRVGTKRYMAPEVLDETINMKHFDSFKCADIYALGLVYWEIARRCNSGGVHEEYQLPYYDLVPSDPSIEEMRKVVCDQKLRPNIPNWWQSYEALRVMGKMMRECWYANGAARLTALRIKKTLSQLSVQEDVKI

Ephrin type-B receptor 3 = molecular target: T4, Ephrin type-B receptor 3 (Homo sapiens, UniProt P54753)
T4 sequence (P54753 whole entry): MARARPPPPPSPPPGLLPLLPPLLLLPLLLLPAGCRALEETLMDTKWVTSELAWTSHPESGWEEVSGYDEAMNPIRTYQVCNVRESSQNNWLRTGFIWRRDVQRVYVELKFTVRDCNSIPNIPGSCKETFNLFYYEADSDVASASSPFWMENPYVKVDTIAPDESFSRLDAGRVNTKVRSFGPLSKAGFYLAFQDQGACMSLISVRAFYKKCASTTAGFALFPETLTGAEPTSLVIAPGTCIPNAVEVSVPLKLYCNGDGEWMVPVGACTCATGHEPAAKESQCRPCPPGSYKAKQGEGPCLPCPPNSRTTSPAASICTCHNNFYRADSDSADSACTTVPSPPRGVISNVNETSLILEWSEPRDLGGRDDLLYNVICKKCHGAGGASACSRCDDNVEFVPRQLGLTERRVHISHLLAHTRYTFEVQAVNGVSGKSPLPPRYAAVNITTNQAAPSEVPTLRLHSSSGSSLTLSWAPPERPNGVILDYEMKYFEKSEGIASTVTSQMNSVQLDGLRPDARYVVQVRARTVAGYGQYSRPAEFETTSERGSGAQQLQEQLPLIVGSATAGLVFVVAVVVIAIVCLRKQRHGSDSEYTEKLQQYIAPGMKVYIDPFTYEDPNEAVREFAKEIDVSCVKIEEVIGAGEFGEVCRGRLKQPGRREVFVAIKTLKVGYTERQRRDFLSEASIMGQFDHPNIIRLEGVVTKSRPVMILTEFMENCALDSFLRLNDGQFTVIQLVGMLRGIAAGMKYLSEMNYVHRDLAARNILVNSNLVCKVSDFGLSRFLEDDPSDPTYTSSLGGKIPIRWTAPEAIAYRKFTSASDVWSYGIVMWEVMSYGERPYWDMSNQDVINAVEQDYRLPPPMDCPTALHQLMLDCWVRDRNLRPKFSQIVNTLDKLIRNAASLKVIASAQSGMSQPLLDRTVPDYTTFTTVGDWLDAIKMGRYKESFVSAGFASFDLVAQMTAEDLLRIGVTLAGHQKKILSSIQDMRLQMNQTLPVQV

Sequence of Dual specificity testis-specific protein kinase 1 (Q15569 whole entry): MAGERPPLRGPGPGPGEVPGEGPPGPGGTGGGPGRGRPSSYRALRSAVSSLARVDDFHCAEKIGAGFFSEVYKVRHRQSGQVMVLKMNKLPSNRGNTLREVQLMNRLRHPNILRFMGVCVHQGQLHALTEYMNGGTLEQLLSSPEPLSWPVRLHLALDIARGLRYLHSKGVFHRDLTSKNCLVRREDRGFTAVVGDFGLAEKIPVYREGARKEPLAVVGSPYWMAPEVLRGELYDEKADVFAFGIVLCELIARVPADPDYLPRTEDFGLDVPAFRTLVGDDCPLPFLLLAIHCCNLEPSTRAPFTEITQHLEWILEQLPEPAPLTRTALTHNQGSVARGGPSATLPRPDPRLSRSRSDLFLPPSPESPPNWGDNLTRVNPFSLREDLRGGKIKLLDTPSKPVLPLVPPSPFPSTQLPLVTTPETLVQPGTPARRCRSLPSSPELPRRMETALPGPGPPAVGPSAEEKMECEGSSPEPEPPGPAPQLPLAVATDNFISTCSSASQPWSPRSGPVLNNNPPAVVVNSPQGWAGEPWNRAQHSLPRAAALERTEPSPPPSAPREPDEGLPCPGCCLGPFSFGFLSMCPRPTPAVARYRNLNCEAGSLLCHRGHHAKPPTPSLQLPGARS

Cc1nc(Nc2n[nH]c3c2CN(C(=O)N[C@H](CN(C)C)c2ccccc2)C3(C)C)c2sccc2n1 [PF-03758309]
inactive: Kd [1] > 30 µM | Kd [3] > 30 µM | Kd (Activin receptor type-1B) > 30 µM | Kd (Ephrin type-B receptor 3) > 30 µM
active: Kd [2] 2.19 µM

CC(=O)NCC(=O)N1[C@@H]2CC[C@H]1c1ccc(Nc3ncc(C(F)(F)F)c(NC4CCC4)n3)cc12 [PF-03814735]
inactive: Kd [1] > 30 µM | Kd [3] > 30 µM | Kd (Activin receptor type-1B) > 30 µM | Kd (Ephrin type-B receptor 3) > 30 µM
active: Kd [2] 0.766 µM

Cc1cnc(NC(=O)Nc2cc(Br)c(C)cc2OC[C@@H]2CNCCO2)cn1 [RABUSERTIB]
inactive: Kd [1] > 30 µM | Kd [2] > 30 µM | Kd (Activin receptor type-1B) > 30 µM | Kd (Ephrin type-B receptor 3) > 30 µM
5.42: pKd [3]

CNC(=O)c1cc(Oc2ccc(NC(=O)Nc3cc(C(C)(C)C)nn3-c3ccc4ncccc4c3)c(F)c2)ccn1 [REBASTINIB]
inactive: Kd [1] > 30 µM | Kd [2] > 30 µM | Kd [3] > 30 µM | Kd (Activin receptor type-1B) > 30 µM | Kd (Ephrin type-B receptor 3) > 30 µM

CO[C@H]1C[C@@H]2CC[C@@H](C)[C@@](O)(O2)C(=O)C(=O)N2CCCC[C@H]2C(=O)O[C@H]([C@H](C)C[C@@H]2CC[C@@H](OP(C)(C)=O)[C@H](OC)C2)CC(=O)[C@H](C)/C=C(\C)[C@@H](O)[C@@H](OC)C(=O)[C@H](C)C[C@H](C)/C=C/C=C/C=C/1C [RIDAFOROLIMUS]
inactive: Kd [1] > 30 µM | Kd [2] > 30 µM | Kd [3] > 30 µM | Kd (Activin receptor type-1B) > 30 µM | Kd (Ephrin type-B receptor 3) > 30 µM

N#CC1(c2ccc(NC(=O)c3cccnc3NCc3ccncc3)cc2)CCCC1 [RIVOCERANIB]
inactive: Kd [1] > 30 µM | Kd [2] > 30 µM | Kd [3] > 30 µM | Kd (Activin receptor type-1B) > 30 µM | Kd (Ephrin type-B receptor 3) > 30 µM

O=c1[nH]ccc2cc(OC3CCNCC3)ccc12 [SAR-407899 FREE BASE]
inactive: Kd [1] > 30 µM | Kd [2] > 30 µM | Kd [3] > 30 µM | Kd (Activin receptor type-1B) > 30 µM | Kd (Ephrin type-B receptor 3) > 30 µM

CN1CCN(CCOc2cc(OC3CCOCC3)c3c(Nc4c(Cl)ccc5c4OCO5)ncnc3c2)CC1 [SARACATINIB]
active: Kd (Activin receptor type-1B) 0.142 µM
inactive: Kd [1] > 30 µM | Kd [2] > 30 µM | Kd [3] > 30 µM | Kd (Ephrin type-B receptor 3) > 30 µM

Cn1cc(-c2cnn3c(N)c(Br)c([C@@H]4CCCNC4)nc23)cn1 [SCH-900776]
inactive: Kd [1] > 30 µM | Kd [2] > 30 µM | Kd [3] > 30 µM | Kd (Activin receptor type-1B) > 30 µM | Kd (Ephrin type-B receptor 3) > 30 µM

CO[C@H]1C[C@@H]2CC[C@@H](C)[C@@](O)(O2)C(=O)C(=O)N2CCCC[C@H]2C(=O)O[C@H]([C@H](C)C[C@@H]2CC[C@@H](O)[C@H](OC)C2)CC(=O)[C@H](C)/C=C(\C)[C@@H](O)[C@@H](OC)C(=O)[C@H](C)C[C@H](C)/C=C/C=C/C=C/1C [SIROLIMUS]
inactive: Kd [1] > 30 µM | Kd [2] > 30 µM | Kd [3] > 30 µM | Kd (Activin receptor type-1B) > 30 µM | Kd (Ephrin type-B receptor 3) > 30 µM

CO[C@H]1C[C@@H]2CC[C@@H](C)[C@@](O)(O2)C(=O)C(=O)N2CCCC[C@H]2C(=O)O[C@H]([C@H](C)C[C@@H]2CC[C@@H](OC(=O)C(C)(CO)CO)[C@H](OC)C2)CC(=O)[C@H](C)/C=C(\C)[C@@H](O)[C@@H](OC)C(=O)[C@H](C)C[C@H](C)/C=C/C=C/C=C/1C [TEMSIROLIMUS]
inactive: Kd [1] > 30 µM | Kd [2] > 30 µM | Kd [3] > 30 µM | Kd (Activin receptor type-1B) > 30 µM | Kd (Ephrin type-B receptor 3) > 30 µM

COc1cc2c(Nc3ccc(Cl)c(Cl)c3F)ncnc2cc1OC[C@@H]1C[C@@H]2CN(C)C[C@@H]2C1 [TESEVATINIB]
inactive: Kd [1] > 30 µM | Kd [3] > 30 µM | Kd (Activin receptor type-1B) > 30 µM | Kd (Ephrin type-B receptor 3) > 30 µM
active: Kd [2] 1.82 µM

O=C(Cc1ccc(-c2ccc(OCCN3CCOCC3)cc2)cn1)NCc1ccccc1 [TIRBANIBULIN]
inactive: Kd [1] > 30 µM | Kd [2] > 30 µM | Kd [3] > 30 µM | Kd (Activin receptor type-1B) > 30 µM | Kd (Ephrin type-B receptor 3) > 30 µM

O=C1NC(=O)[C@@H](c2cn3c4c(cccc24)CCC3)[C@@H]1c1c[nH]c2ccccc12 [TIVANTINIB]
inactive: Kd [1] > 30 µM | Kd [2] > 30 µM | Kd [3] > 30 µM | Kd (Activin receptor type-1B) > 30 µM | Kd (Ephrin type-B receptor 3) > 30 µM

C[C@@H](NC(=O)c1ncnc(N)c1Cl)c1ncc(C(=O)Nc2cc(C(F)(F)F)c(Cl)cn2)s1 [TOVORAFENIB]
inactive: Kd [1] > 30 µM | Kd [2] > 30 µM | Kd [3] > 30 µM | Kd (Activin receptor type-1B) > 30 µM | Kd (Ephrin type-B receptor 3) > 30 µM

Cc1cc(Nc2ncnc3ccc(NC4=NC(C)(C)CO4)cc23)ccc1Oc1ccn2ncnc2c1 [TUCATINIB]
inactive: Kd [1] > 30 µM | Kd [2] > 30 µM | Kd (Activin receptor type-1B) > 30 µM | Kd (Ephrin type-B receptor 3) > 30 µM
active: Kd [3] 3.91 µM

CC(C)c1cc(CNc2nc(Nc3cc(C4CC4)[nH]n3)cc(N3CCN(C)CC3)n2)on1 [XL-228]
inactive: Kd [1] > 30 µM | Kd [3] > 30 µM | Kd (Activin receptor type-1B) > 30 µM | Kd (Ephrin type-B receptor 3) > 30 µM
active: Kd [2] 0.526 µM

C[C@@H](N)c1ccc(C(=O)Nc2ccnc3[nH]ccc23)cc1 [Y-39983]
inactive: Kd [1] > 30 µM | Kd [2] > 30 µM | Kd [3] > 30 µM | Kd (Activin receptor type-1B) > 30 µM | Kd (Ephrin type-B receptor 3) > 30 µM

CN1C/C=C/CCOc2cccc(c2)-c2ccnc(n2)Nc2cccc(c2)C1 [ZOTIRACICLIB]
inactive: Kd [1] > 30 µM | Kd (Activin receptor type-1B) > 30 µM | Kd (Ephrin type-B receptor 3) > 30 µM
active: Kd [2] 0.85 µM
6.61: pKd [3]
